From patent US6380387B1, “4-Pyrimidinyl-n-acyl-l phenylalanines” (Hoffmann-La Roche Inc., priority 1999, dated 2002)

Tests used:
alpha4-beta7 = target: T1, alpha4-beta7 (Homo sapiens, UniProt P13612+P26010); test: Alpha4-Beta7 Assay (MadCAM/RPMI 8866 cell adhesion); assay type: cell-based; conditions: calcein labeled RPMI 8866 cells adhering to immobilized MadCAM
T1 construct: Sufficient RPMI 8866 cells were removed from stock for assay; endogenous in cells; host or cells: RPMI 8866 cells
T1 sequence (P13612 34-1032): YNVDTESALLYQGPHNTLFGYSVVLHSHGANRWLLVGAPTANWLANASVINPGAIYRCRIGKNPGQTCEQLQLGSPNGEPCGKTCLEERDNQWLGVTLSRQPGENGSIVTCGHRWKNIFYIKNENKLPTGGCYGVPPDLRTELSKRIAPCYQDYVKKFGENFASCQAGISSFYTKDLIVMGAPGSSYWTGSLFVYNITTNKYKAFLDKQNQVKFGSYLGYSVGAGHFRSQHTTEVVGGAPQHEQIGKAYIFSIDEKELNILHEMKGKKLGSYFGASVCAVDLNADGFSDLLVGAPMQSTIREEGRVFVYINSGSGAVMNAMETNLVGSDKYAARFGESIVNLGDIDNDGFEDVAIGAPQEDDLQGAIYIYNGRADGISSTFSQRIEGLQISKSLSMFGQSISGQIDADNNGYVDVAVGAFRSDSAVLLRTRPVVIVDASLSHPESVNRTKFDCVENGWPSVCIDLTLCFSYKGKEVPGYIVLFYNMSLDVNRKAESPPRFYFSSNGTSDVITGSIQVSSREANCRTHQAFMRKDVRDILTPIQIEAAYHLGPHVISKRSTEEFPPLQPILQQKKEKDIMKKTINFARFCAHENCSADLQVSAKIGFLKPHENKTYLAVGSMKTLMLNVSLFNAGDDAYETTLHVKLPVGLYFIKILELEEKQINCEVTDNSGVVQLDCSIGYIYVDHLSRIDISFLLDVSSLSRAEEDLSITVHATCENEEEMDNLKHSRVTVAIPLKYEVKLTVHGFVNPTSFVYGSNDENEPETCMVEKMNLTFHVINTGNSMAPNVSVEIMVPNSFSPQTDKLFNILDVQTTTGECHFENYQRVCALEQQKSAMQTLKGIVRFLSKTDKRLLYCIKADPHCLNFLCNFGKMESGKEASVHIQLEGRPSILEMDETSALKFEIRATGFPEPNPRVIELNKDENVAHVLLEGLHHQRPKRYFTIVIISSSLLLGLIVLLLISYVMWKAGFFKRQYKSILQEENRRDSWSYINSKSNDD
T1 sequence (P26010 20-798): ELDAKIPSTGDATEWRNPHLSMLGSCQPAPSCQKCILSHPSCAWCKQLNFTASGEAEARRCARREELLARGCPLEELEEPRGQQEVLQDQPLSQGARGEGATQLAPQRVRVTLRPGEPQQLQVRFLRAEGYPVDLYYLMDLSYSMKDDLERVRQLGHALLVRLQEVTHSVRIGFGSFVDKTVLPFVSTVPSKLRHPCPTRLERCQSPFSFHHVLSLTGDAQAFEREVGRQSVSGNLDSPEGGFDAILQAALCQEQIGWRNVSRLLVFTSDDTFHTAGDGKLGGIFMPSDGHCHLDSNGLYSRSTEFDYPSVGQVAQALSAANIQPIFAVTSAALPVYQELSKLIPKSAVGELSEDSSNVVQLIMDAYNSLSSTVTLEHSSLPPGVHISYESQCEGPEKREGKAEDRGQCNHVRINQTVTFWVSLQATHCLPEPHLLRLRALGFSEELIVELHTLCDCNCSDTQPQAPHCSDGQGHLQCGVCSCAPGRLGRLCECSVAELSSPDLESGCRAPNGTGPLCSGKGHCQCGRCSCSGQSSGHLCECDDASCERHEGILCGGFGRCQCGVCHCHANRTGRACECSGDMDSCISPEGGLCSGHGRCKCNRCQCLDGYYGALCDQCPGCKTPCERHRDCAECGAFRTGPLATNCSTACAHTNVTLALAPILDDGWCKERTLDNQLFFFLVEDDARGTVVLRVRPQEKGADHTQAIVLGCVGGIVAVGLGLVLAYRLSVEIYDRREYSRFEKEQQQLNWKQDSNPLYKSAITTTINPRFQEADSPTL
Description: Alpha4-Beta7 Assay Protocol
Two weeks to one day prior to the assay, Nunc high-binding F96 Maxisorp immuno plates, #442404 or #439454, were coated with 25 ng/well (0.25 μg/ml) MadCAM in a volume of 100 μl/well. The plates were covered with sealer and wrapped in saran wrap followed by incubation in the refrigerator for at least 24 hours. The coating buffer employed was: 10 mM carbonate/bicarbonate buffer made up from: 0.8 g/L sodium carbonate and 1.55 g/L sodium bicarbonate adjusted to pH 9.6 with 1 N HCl. Assay buffers consisted of the following:
Plates were washed 2× with wash buffer and then blocked at room temperature for at least 1 hour with Blocking Buffer. Sealed plates were sometimes blocked overnight in the refrigerator. Plates were then washed with PBS and hand blotted dry. Remaining liquid was aspirated from the wells.
Sufficient RPMI 8866 cells were removed from stock for assay (2×10^6 cells/ml×10 ml/plate×number of plates) and placed in a centrifuge tube. The tubes were filled to volume with PBS and were spun at 200×G for 8 minutes. The buffer was poured off and the cells were resuspended to 10×10^6/ml in PBS and a stock solution of calcein in DMSO (5mg/mL) was added at 51 μl/ml of cell suspension. The suspension was incubated for 30 minutes at 37° C. in dark. The cells were then washed with PBS. The PBS was poured off and the cells resuspended in cell buffer at a concentration of 2×10^6 cells/mL for plating in the assay.
Stock solution of test compounds at 25× first dilution desired in 100% DMSO were prepared. First dilutions for the standard, as well as test compounds, were 1:25 into straight Binding Buffer, while the remaining serial dilutions were into Dilution Buffer (Binding Buffer/4% DMSO). Stock concentrations and dilutions of compounds for screening were determined by anticipated activity.
For the assay, 129 μl Binding Buffer was plated into first row of wells and 100 μl Dilution Buffer was plated into remaining wells. A 5.44 μl aliquot of each compound was pipetted into appropriate, labeled wells, in triplicate. The compounds were next diluted down the plate (34 μl+100 μl=>4-fold dilution). For controls, 100 μl of Dilution Buffer 100 μl Cell Buffer were plated into the nonspecific background wells (no cells, no compound) and 100 μl Dilution Buffer+100 μl cells were plated into the total binding wells (no compound=100% binding). Labeled cells at 2×10^6 cells/ml, 100 μl/well (=2×10^5 cells/well) were added to each well containing compound. The plates were sealed and incubated in the dark for 45 minutes at room temperature. Following incubation, unbound cells were removed by adding 150 μl PBS/well. The plates were inverted, blotted onto paper towels and washed by gently adding 200 μl PBS to wells and blotting again. Remaining buffer was carefully aspirated from the wells. A final 100 μl PBS was added to each well.
The plates were then read for fluorescence intensity on a Cytofluor 2300 (Millipore) fluorecence measurement system (excitation=485 nm, emission=530 nm). IC50s of each compound were determined by linear regression analysis.

## Cn1c(C(F)(F)F)c(-c2ccc(C[C@H](NC(=O)c3c(Cl)cccc3Cl)C(=O)O)cc2)c(=O)n(C)c1=O [Example 21, N-[1-(2,6-dichlorophenyl)carbonyl]-4-(1,3-dimethyl-2,4-dioxo-6-(trifluoromethyl)-5-pyrimidinyl)-L-phenylalanine]
alpha4-beta7
  IC50: < 10 µM
other
  melting point: 125 to 128 °C

## Cc1cccc(Cl)c1C(=O)N[C@@H](Cc1ccc(-c2c(C(F)(F)F)n(C)c(=O)n(C)c2=O)cc1)C(=O)O [Example 22, N-[(2-chloro-6-methylphenyl)carbonyl]-4-[1,3-dimethyl-2,4-dioxo-6-(trifluoromethyl)-5-pyrimidinyl]-L-phenylalanine]
alpha4-beta7
  IC50: < 10 µM
other
  melting point: 243 to 247 °C

## Cn1c(C(F)(F)F)c(-c2ccc(C[C@H](NC(=O)c3c(F)cccc3C(F)(F)F)C(=O)O)cc2)c(=O)n(C)c1=O [Example 23, N-[[2-fluoro-6-(trifluoromethyl)phenyl]carbonyl]-4-(1,3-dimethyl-2,4-dioxo-6-(trifluoromethyl)-5-pyrimidinyl)-L-phenylalanine]
alpha4-beta7
  IC50: < 10 µM
other
  melting point: 122 to 125 °C

## Cc1cc(C[C@H](NC(=O)c2c(C)cccc2Cl)C(=O)O)ccc1-c1cn(C)c(=O)n(C)c1=O [Example 24, N-[(2-chloro-6-methylphenyl)carbonyl]-4-(1,3-dimethyl-2,4-dioxo-5-pyrimidinyl)-3-methyl-L-phenylalanine]
alpha4-beta7
  IC50: < 10 µM
other
  melting point: 109 to 111 °C
